Test results: patent US9920032B2, “Heterocyclic compounds useful as pim kinase inhibitors” (Incyte Corporation, priority 2015, dated 2018)

Assays:
Type in all cases: biochemical
Pim-1 = Pim-1 (Homo sapiens (Human), UniProt P11309); test: Pim-1 kinase assay; settings: 1 mM ATP; read-out: PIM1 IC50
Method in brief: (§1)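 Biotin-BAD peptide (0.05 μM) phosphorylated with 1 mM ATP by 2.5 pM Pim-1 or 1.25 pM Pim-3 in Tris pH 7.5/MgCl2/DTT buffer, 1 h at 25° C. EDTA stop; phospho-BAD (Ser112) antibody with streptavidin donor and Protein-A acceptor beads, 1 h dark at room temperature before AlphaScreen-type bead read.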

Pim-2 = Pim-2 (Homo sapiens (Human), UniProt Q9P1W9); test: Pim-2 kinase assay; settings: 1 mM ATP; read-out: PIM2 IC50
Method in brief: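 TR-FRET assay with 1 nM enzyme, 0.05 μM fluorescein-CREBtide and 1 mM ATP in Tris pH 7.5 buffer with MgCl2, DTT, BSA and Tween-20, run 2 h at 25° C. Stopped with EDTA and Tb-labelled anti-CREB pSer133 antibody, then read after 30 min at room temperature.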

Pim-3 = Pim-3 (Homo sapiens (Human), UniProt Q86V86); test: Pim-3 kinase assay; settings: 1 mM ATP; read-out: PIM3 IC50
Method in brief: as §1

Pim-2, sequence (Q9P1W9 whole entry): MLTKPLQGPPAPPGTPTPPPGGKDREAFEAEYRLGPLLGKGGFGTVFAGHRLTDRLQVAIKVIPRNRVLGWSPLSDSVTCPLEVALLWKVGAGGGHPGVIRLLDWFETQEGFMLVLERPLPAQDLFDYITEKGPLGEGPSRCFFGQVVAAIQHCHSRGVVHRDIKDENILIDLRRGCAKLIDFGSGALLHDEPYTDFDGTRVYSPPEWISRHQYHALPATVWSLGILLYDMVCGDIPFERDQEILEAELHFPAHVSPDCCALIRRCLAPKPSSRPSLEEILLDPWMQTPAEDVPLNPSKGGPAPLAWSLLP
Pim-1, sequence (P11309 whole entry): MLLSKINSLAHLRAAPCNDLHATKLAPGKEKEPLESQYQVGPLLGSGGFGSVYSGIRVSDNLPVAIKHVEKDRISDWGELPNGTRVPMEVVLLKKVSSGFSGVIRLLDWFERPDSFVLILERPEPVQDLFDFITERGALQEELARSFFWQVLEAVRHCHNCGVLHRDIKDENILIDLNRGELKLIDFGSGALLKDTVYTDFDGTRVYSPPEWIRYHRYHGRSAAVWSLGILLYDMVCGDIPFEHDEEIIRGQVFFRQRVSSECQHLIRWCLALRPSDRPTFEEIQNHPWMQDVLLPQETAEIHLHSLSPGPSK

Compound	IC50 (Pim-1) [nM]	IC50 (Pim-2) [nM]	IC50 (Pim-3) [nM]
CO[C@@H]1CCN(c2cnc3c(C(=O)Nc4cnccc4[C@@H]4C[C@H](C)C[C@H](N)C4)ccc(F)c3c2)[C@@H](C)C1 [Example 160, N-(4-((1R,3S,5S)-3-Amino-5-methylcyclohexyl)pyridin-3-yl)-5-fluoro-3-((2S,4R)-4-methoxy-2-methylpiperidin-1-yl)quinoline-8-carboxamide]	≤ 10	≤ 100	≤ 10
C[C@@H]1C[C@H](N)C[C@H](c2ccncc2NC(=O)c2ccc(F)c3cc(N4CC[C@@H]4C)cnc23)C1 [Example 166, N-(4-((1R,3S,5S)-3-Amino-5-methylcyclohexyl)pyridin-3-yl)-5-fluoro-3-((S)-2-methylazetidin-1-yl)quinoline-8-carboxamide]	≤ 10	≤ 100	≤ 10
C[C@@H]1C[C@H](N)C[C@H](c2ccncc2NC(=O)c2ccc(F)c3cc(N4CCOC(CO)C4)cnc23)C1 (stereo partly drawn) [Example 132, N-(4-((1R,3S,5S)-3-Amino-5-methylcyclohexyl)pyridin-3-yl)-5-fluoro-3-(2-(hydroxymethyl)morpholino)quinoline-8-carboxamide]	≤ 10	100 to 1000	≤ 10
COCCO[C@H]1CCN(c2cnc3c(C(=O)Nc4cnccc4[C@@H]4C[C@H](C)C[C@H](N)C4)ccc(F)c3c2)C[C@@H]1F [Example 163]	≤ 10	≤ 100	≤ 10
C[C@@H]1C[C@H](N)C[C@H](c2ccncc2NC(=O)c2ccc(F)c3cc(N(C)CC4CC4)cnc23)C1 [Example 19, N-{4-[(1R,3S,5S)-3-Amino-5-methylcyclohexyl]pyridin-3-yl}-3-[(cyclopropylmethyl)(methyl)amino]-5-fluoroquinoline-8-carboxamide]	≤ 10	100 to 1000	≤ 10
COc1ccc(N(C)c2cnc3c(C(=O)Nc4cnccc4[C@@H]4C[C@H](C)C[C@H](N)C4)ccc(F)c3c2)c(C)n1 [Example 144, N-(4-((1R,3S,5S)-3-Amino-5-methylcyclohexyl)pyridin-3-yl)-5-fluoro-3-((6-methoxy-2-methylpyridin-3-yl)(methyl)amino)quinoline-8-carboxamide]	≤ 10	≤ 100	≤ 10
C[C@@H]1C[C@H](N)C[C@H](c2ccncc2NC(=O)c2ccc(F)c3cc(N4CC(F)C4)cnc23)C1 [Example 9, N-{4-[(1R,3S,5S)-3-Amino-5-methylcyclohexyl]pyridin-3-yl}-5-fluoro-3-(3-fluoroazetidin-1-yl)quinoline-8-carboxamide]	≤ 10	100 to 1000	≤ 10
C[C@@H]1C[C@H](N)C[C@H](c2ccncc2NC(=O)c2ccc(F)c3cc(C4CC4)cnc23)C1 [Example 13, N-{4-[(1R,3S,5S)-3-Amino-5-methylcyclohexyl]pyridin-3-yl}-3-cyclopropyl-5-fluoroquinoline-8-carboxamide]	≤ 10	≤ 100	≤ 10
C[C@@H]1C[C@H](N)C[C@H](c2ccncc2NC(=O)c2ccc(F)c3cc(Nc4ccccc4C#N)cnc23)C1 [Example 129, N-(4-((1R,3S,5S)-3-Amino-5-methylcyclohexyl)pyridin-3-yl)-3-(2-cyanophenylamino)-5-fluoroquinoline-8-carboxamide]	≤ 10	100 to 1000	≤ 10
C[C@@H]1C[C@H](N)C[C@H](c2ccncc2NC(=O)c2ccc(F)c3cc(-c4ccccc4C#N)cnc23)C1 [Example 17, N-{4-[(1R,3S,5S)-3-Amino-5-methylcyclohexyl]pyridin-3-yl}-3-(2-cyanophenyl)-5-fluoroquinoline-8-carboxamide]	≤ 10	100 to 1000	≤ 10
CC1CCCCN1c1cc2c(F)ccc(C(=O)Nc3cnccc3[C@@H]3C[C@H](C)C[C@H](N)C3)c2nn1 (stereo partly drawn) [Example 93, N-{4-[(1R,3S,5S)-3-Amino-5-methylcyclohexyl]pyridin-3-yl}-5-fluoro-3-(2-methylpiperidin-1-yl)cinnoline-8-carboxamide]	≤ 10	≤ 100	≤ 10
COC(=O)N1CCCN(c2cnc3c(C(=O)Nc4cnccc4[C@@H]4C[C@H](C)C[C@H](N)C4)ccc(F)c3c2)CC1 [Example 126, Methyl 4-(8-(4-((1R,3S,5S)-3-amino-5-methylcyclohexyl)pyridin-3-ylcarbamoyl)-5-fluoroquinolin-3-yl)-1,4-diazepane-1-carboxylate]	≤ 10	≤ 100	≤ 10
C[C@@H]1C[C@H](N)C[C@H](c2ccncc2NC(=O)c2ccc(F)c3cc(N4CC(C)(C)C4)cnc23)C1 [Example 116, N-(4-((1R,3S,5S)-3-Amino-5-methylcyclohexyl)pyridin-3-yl)-3-(3,3-dimethylazetidin-1-yl)-5-fluoroquinoline-8-carboxamide]	≤ 10	≤ 100	≤ 10
C[C@@H]1C[C@H](N)C[C@H](c2ccncc2NC(=O)c2ccc(F)c3cc(N4CCC[C@H]4C)cnc23)C1 [Example 34, N-(4-((1R,3S,5S)-3-Amino-5-methylcyclohexyl)pyridin-3-yl)-5-fluoro-3-((R)-2-methylpyrrolidin-1-yl)quinoline-8-carboxamide]	≤ 10	≤ 100	≤ 10
C[C@@H]1C[C@H](N)C[C@H](c2ccncc2NC(=O)c2ccc(F)c3cc(N4CCN(S(=O)(=O)N(C)C)CC4)cnc23)C1 [Example 74, N-(4-((1R,3S,5S)-3-Amino-5-methylcyclohexyl)pyridin-3-yl)-3-(4-(N,N-dimethylsulfamoyl)piperazin-1-yl)-5-fluoroquinoline-8-carboxamide]	≤ 10	100 to 1000	≤ 10
CC1CCCCN1c1cnc2c(C(=O)Nc3cnccc3[C@@H]3C[C@H](C)C[C@H](N)C3)ccc(F)c2c1 (stereo partly drawn) [Example 43, N-(4-((1R,3S,5S)-3-Amino-5-methylcyclohexyl)pyridin-3-yl)-5-fluoro-3-(2-methylpiperidin-1-yl)quinoline-8-carboxamide]	≤ 10	≤ 100	≤ 10
C[C@@H]1C[C@H](N)C[C@H](c2ccncc2NC(=O)c2ccc(F)c3cc(N4CCN(C)C(=O)C4)cnc23)C1 [Example 75, N-(4-((1R,3S,5S)-3-Amino-5-methylcyclohexyl)pyridin-3-yl)-5-fluoro-3-(4-methyl-3-oxopiperazin-1-yl)quinoline-8-carboxamide]	≤ 10	≤ 100	≤ 10
C[C@@H]1C[C@H](N)C[C@H](c2ccncc2NC(=O)c2ccc(F)c3cc(N4CCCc5ccccc54)cnc23)C1 [Example 130, N-(4-((1R,3S,5S)-3-Amino-5-methylcyclohexyl)pyridin-3-yl)-5′-fluoro-3,4-dihydro-2H-1,3′-biquinoline-8′-carboxamide]	≤ 10	100 to 1000	≤ 10
C[C@@H]1C[C@H](N)C[C@H](c2ccncc2NC(=O)c2ccc(F)c3cc(N4CCOC[C@H]4C)nnc23)C1 [Example 94, N-{4-[(1R,3S,5S)-3-Amino-5-methylcyclohexyl]pyridin-3-yl}-5-fluoro-3-[(3R)-3-methylmorpholin-4-yl]cinnoline-8-carboxamide]	≤ 10	≤ 100	≤ 10
CO[C@H]1CCCN(c2cnc3c(C(=O)Nc4cnccc4[C@@H]4C[C@H](C)C[C@H](N)C4)ccc(F)c3c2)C1 [Example 11, N-{4-[(1R,3S,5S)-3-Amino-5-methylcyclohexyl]pyridin-3-yl}-5-fluoro-3-[(38)-3-methoxypiperidin-1-yl]quinoline-8-carboxamide]	≤ 10	100 to 1000	≤ 10
C[C@@H]1C[C@H](N)C[C@H](c2ccncc2NC(=O)c2ccc(F)c3cc(N4CCCCC4C(F)F)cnc23)C1 (stereo partly drawn) [Example 58, N-(4-((1R,3S,5S)-3-Amino-5-methylcyclohexyl)pyridin-3-yl)-3-(2-(difluoromethyl)piperidin-1-yl)-5-fluoroquinoline-8-carboxamide]	≤ 10	≤ 100	≤ 10
CC1CCCCN1c1cnc2c(C(=O)Nc3cnccc3[C@@H]3C[C@H](C)C[C@H](N)C3)cccc2c1 (stereo partly drawn) [Example 70, N-(4-((1R,3S,5S)-3-Amino-5-methylcyclohexyl)pyridin-3-yl)-3-(2-methylpiperidin-1-yl)quinoline-8-carboxamide]	≤ 10	100 to 1000	≤ 10
C[C@@H]1C[C@H](N)C[C@H](c2ccncc2NC(=O)c2ccc(F)c3cc(-c4ccc(C(F)(F)F)nc4)cnc23)C1 [Example 61, N-(4-((1R,3S,5S)-3-Amino-5-methylcyclohexyl)pyridin-3-yl)-5-fluoro-3-(6-(trifluoromethyl)pyridin-3-yl)quinoline-8-carboxamide]	≤ 10	1000 to 10000	10 to 50
C[C@@H]1C[C@H](N)C[C@H](c2ccncc2NC(=O)c2ccc(F)c3cc(N4CCCCO4)cnc23)C1 [Example 109, N-(4-((1R,3S,5S)-3-amino-5-methylcyclohexyl)pyridin-3-yl)-5-fluoro-3-(1,2-oxazinan-2-yl)quinoline-8-carboxamide]	≤ 10	≤ 100	≤ 10
C[C@@H]1C[C@H](N)C[C@H](c2ccncc2NC(=O)c2ccc(F)c3cc(N(C)CCF)cnc23)C1 [Example 22, N-{4-[(1R,3S,5S)-3-Amino-5-methylcyclohexyl]pyridin-3-yl}-5-fluoro-3-[(2-fluoroethyl)(methyl)amino]quinoline-8-carboxamide]	≤ 10	≤ 100	≤ 10
